Holding throughout (assay type): functional
The test system of one test is Enterococcus faecalis. Description: Antibacterial activity against Enterococcus faecalis ATCC 51575.
The subject of test [1] is Staphylococcus aureus. Description: Antibacterial activity against macrolide resistant Staphylococcus aureus ATCC BAA-39.
The test system of test [2] is Staphylococcus aureus. Description: Antibacterial activity against Staphylococcus aureus ATCC 6538p.
Test [3] relates to Streptococcus pneumoniae. As to the kind of experiment: Antibacterial activity against Streptococcus pneumoniae ATCC 49619.
Test [4] concerns Staphylococcus epidermidis. Description: Antibacterial activity against Staphylococcus epidermidis ATCC 12228.
Test [5] concerns Staphylococcus aureus. Description: Antibacterial activity against macrolide resistant Staphylococcus aureus ATCC 33591.
Test [6] concerns Staphylococcus aureus. Description: Antibacterial activity against macrolide resistant Staphylococcus aureus ATCC 141541.
Test [7] relates to Streptococcus pneumoniae. Description: Antibacterial activity against Streptococcus pneumoniae ATCC 700671.
Test [8] deals with Streptococcus pneumoniae. Description: Antibacterial activity against macrolide resistant Streptococcus pneumoniae ATCC 700906.
Test [9] has as its system Staphylococcus aureus. As to the kind of experiment: Antibacterial activity against macrolide resistant Staphylococcus aureus ATCC BAA-44.
Test [10] relates to Streptococcus pneumoniae. As to the kind of experiment: Antibacterial activity against macrolide resistant Streptococcus pneumoniae ATCC 700677.
In test [11] the test system is Streptococcus pneumoniae. As to the kind of experiment: Antibacterial activity against macrolide resistant Streptococcus pneumoniae ATCC 700905.
The test system of test [12] is Streptococcus pneumoniae. As to the kind of experiment: Antibacterial activity against macrolide resistant Streptococcus pneumoniae ATCC 700676.
The subject of test [13] is Staphylococcus aureus. Description: Antibacterial activity against Staphylococcus aureus ATCC 29213.
In test [14] the test system is Streptococcus pneumoniae. Description: Antibacterial activity against Streptococcus pneumoniae ATCC 6301.

SMILES strings stand for the structures. In brackets after ≈: the same amount, converted by molar mass.

Take `CC[C@H]1OC(=O)C[C@@H](O)[C@H](C)[C@@H](O[C@@H]2O[C@H](C)[C@@H](O)[C@H](N(C)C)[C@H]2O)[C@@H](CC=O)C[C@@H](C)C(=N/OC/C=C\c2ccc3nccnc3c2)/C=C/C(C)=C/C1CO` (stereo not given in full): the MIC was over 12.5 µg/mL against Enterococcus faecalis; over 12.5 µg/mL in the test with Staphylococcus aureus [1]; 0.2 µg/mL (≈ 0.256 µM) with Staphylococcus aureus [2]; 0.025 µg/mL (≈ 0.032 µM) against Streptococcus pneumoniae [3]; 0.2 µg/mL (≈ 0.256 µM) in test [4]; over 12.5 µg/mL in the test on Staphylococcus aureus [5]. For the same compound, the minimal inhibitory concentration (MIC) in the test on Staphylococcus aureus [6] was 0.39 µg/mL (≈ 0.499 µM); in the test with Streptococcus pneumoniae [7] it was 0.049 µg/mL (≈ 0.0627 µM); with Streptococcus pneumoniae [8] it was over 12.5 µg/mL; in the test with Staphylococcus aureus [9], over 12.5 µg/mL; in the test on Streptococcus pneumoniae [10], over 12.5 µg/mL; against Streptococcus pneumoniae [11], 0.049 µg/mL (≈ 0.0627 µM). Also, the values for the MIC in the test on Streptococcus pneumoniae [12], in the test on Staphylococcus aureus [13] and in the test on Streptococcus pneumoniae [14] were 0.049 µg/mL (≈ 0.0627 µM), 0.39 µg/mL (≈ 0.499 µM) and 0.025 µg/mL (≈ 0.032 µM), respectively.
With `CC[C@H]1OC(=O)C[C@@H](O)[C@H](C)[C@@H](O[C@@H]2O[C@H](C)[C@@H](O)[C@H](N(C)C)[C@@H]2O)[C@@H](CCN2CC(C)CC(C)C2)C[C@@H](C)C(=N/OCCCc2ccc3ncccc3c2)/C=C/C(C)=C/C1CO` (stereo not given in full), the MIC against Enterococcus faecalis was over 12.5 µg/mL; against Staphylococcus aureus [1], over 12.5 µg/mL; in the test on Staphylococcus aureus [2] it was 12.5 µg/mL (≈ 14.2 µM); in the test with Streptococcus pneumoniae [3] it was 6.25 µg/mL (≈ 7.11 µM); in test [4] it was over 12.5 µg/mL; in the test with Staphylococcus aureus [5], over 12.5 µg/mL. Further, the MIC against Staphylococcus aureus [6] is over 12.5 µg/mL; in the test with Streptococcus pneumoniae [7] it was 6.25 µg/mL (≈ 7.11 µM); against Streptococcus pneumoniae [8], over 12.5 µg/mL; in the test with Staphylococcus aureus [9] it was over 12.5 µg/mL; with Streptococcus pneumoniae [10] it was over 12.5 µg/mL; with Streptococcus pneumoniae [11], over 12.5 µg/mL. In addition, the MIC in the test on Streptococcus pneumoniae [12] was over 12.5 µg/mL; against Staphylococcus aureus [13], over 12.5 µg/mL; against Streptococcus pneumoniae [14], 6.25 µg/mL (≈ 7.11 µM).
In the case of `CC[C@H]1OC(=O)C[C@@H](O)[C@H](C)[C@@H](O[C@@H]2O[C@H](C)[C@@H](O)[C@H](N(C)C)[C@H]2O)[C@@H](CC=O)C[C@@H](C)C(=N/OCCOc2ccccc2)/C=C/C(C)=C/C1CO` (stereo not given in full), the MIC was over 12.5 µg/mL against Enterococcus faecalis; over 12.5 µg/mL against Staphylococcus aureus [1]; 0.098 µg/mL (≈ 0.134 µM) in the test with Staphylococcus aureus [2]; 0.01 µg/mL (≈ 0.0136 µM) against Streptococcus pneumoniae [3]; 0.2 µg/mL (≈ 0.273 µM) in [4]; over 12.5 µg/mL against Staphylococcus aureus [5]. Also, the MIC with Staphylococcus aureus [6] is 0.39 µg/mL (≈ 0.532 µM); against Streptococcus pneumoniae [7], 0.025 µg/mL (≈ 0.0341 µM); in the test on Streptococcus pneumoniae [8] it was over 12.5 µg/mL; in the test on Staphylococcus aureus [9], over 12.5 µg/mL; in the test with Streptococcus pneumoniae [10], 0.39 µg/mL (≈ 0.532 µM); against Streptococcus pneumoniae [11] it was 0.025 µg/mL (≈ 0.0341 µM). Further, the MIC against Streptococcus pneumoniae [12] was 0.025 µg/mL (≈ 0.0341 µM); in the test with Staphylococcus aureus [13], 0.2 µg/mL (≈ 0.273 µM); in the test with Streptococcus pneumoniae [14], 0.025 µg/mL (≈ 0.0341 µM).
Regarding `CC[C@H]1OC(=O)C[C@@H](O)[C@H](C)[C@@H](O[C@@H]2O[C@H](C)[C@@H](O)[C@H](N(C)C)[C@H]2O)[C@@H](CC=O)C[C@@H](C)C(=N\OCc2ccccc2)/C=C/C(C)=C/C1CO` (stereo not given in full), the MIC in the test with Enterococcus faecalis was over 12.5 µg/mL; with Staphylococcus aureus [1], over 12.5 µg/mL; in the test on Staphylococcus aureus [2], 0.78 µg/mL (≈ 1.11 µM); against Streptococcus pneumoniae [3], 0.2 µg/mL (≈ 0.285 µM); in test [4], 1.56 µg/mL (≈ 2.22 µM); against Staphylococcus aureus [5] it was over 12.5 µg/mL. The MIC against Staphylococcus aureus [6] is 1.56 µg/mL (≈ 2.22 µM); with Streptococcus pneumoniae [7] it was 0.39 µg/mL (≈ 0.555 µM); against Streptococcus pneumoniae [8], over 12.5 µg/mL; against Staphylococcus aureus [9] it was over 12.5 µg/mL; in the test with Streptococcus pneumoniae [10] it was 3.12 µg/mL (≈ 4.44 µM); with Streptococcus pneumoniae [11], 0.39 µg/mL (≈ 0.555 µM). In addition, the MIC with Streptococcus pneumoniae [12] stood at 0.2 µg/mL (≈ 0.285 µM); in the test on Staphylococcus aureus [13], 1.56 µg/mL (≈ 2.22 µM); against Streptococcus pneumoniae [14] it was 0.2 µg/mL (≈ 0.285 µM).
As to `CC[C@H]1OC(=O)C[C@@H](O)[C@H](C)[C@@H](O[C@@H]2O[C@H](C)[C@@H](O)[C@H](N(C)C)[C@H]2O)[C@@H](CC=O)C[C@@H](C)C(=N\OC/C=C/c2cnc3ccccc3c2)/C=C/C(C)=C/C1CO` (stereo not given in full), the MIC in the test with Enterococcus faecalis was over 12.5 µg/mL; against Staphylococcus aureus [1], over 12.5 µg/mL; with Staphylococcus aureus [2] it was 0.098 µg/mL (≈ 0.126 µM); against Streptococcus pneumoniae [3] it was 0.025 µg/mL (≈ 0.0321 µM); in test [4] it was 0.049 µg/mL (≈ 0.0628 µM); in the test on Staphylococcus aureus [5], over 12.5 µg/mL. Moreover, the MIC was 0.39 µg/mL (≈ 0.5 µM) with Staphylococcus aureus [6]; 0.049 µg/mL (≈ 0.0628 µM) in the test with Streptococcus pneumoniae [7]; over 12.5 µg/mL with Streptococcus pneumoniae [8]; over 12.5 µg/mL with Staphylococcus aureus [9]; over 12.5 µg/mL against Streptococcus pneumoniae [10]; 0.049 µg/mL (≈ 0.0628 µM) in the test with Streptococcus pneumoniae [11]. Further, the MIC against Streptococcus pneumoniae [12] was found to be 0.049 µg/mL (≈ 0.0628 µM); in the test with Staphylococcus aureus [13] it was 0.39 µg/mL (≈ 0.5 µM); in the test with Streptococcus pneumoniae [14], 0.025 µg/mL (≈ 0.0321 µM).
As to `CC[C@H]1OC(=O)C[C@@H](O)[C@H](C)[C@@H](O[C@@H]2O[C@H](C)[C@@H](O)[C@H](N(C)C)[C@H]2O)[C@@H](CC=O)C[C@@H](C)C(=N/OCC#Cc2cnc3ccccc3c2)/C=C/C(C)=C/C1CO` (stereo not given in full), the MIC was over 12.5 µg/mL with Enterococcus faecalis; over 12.5 µg/mL against Staphylococcus aureus [1]; 0.098 µg/mL (≈ 0.126 µM) with Staphylococcus aureus [2]; 0.025 µg/mL (≈ 0.0321 µM) in the test on Streptococcus pneumoniae [3]; 0.098 µg/mL (≈ 0.126 µM) in test [4]; over 12.5 µg/mL against Staphylococcus aureus [5]. Also, the MIC was 0.39 µg/mL (≈ 0.501 µM) with Staphylococcus aureus [6]; 0.025 µg/mL (≈ 0.0321 µM) against Streptococcus pneumoniae [7]; over 12.5 µg/mL against Streptococcus pneumoniae [8]; over 12.5 µg/mL with Staphylococcus aureus [9]; over 12.5 µg/mL in the test on Streptococcus pneumoniae [10]; 0.049 µg/mL (≈ 0.063 µM) in the test on Streptococcus pneumoniae [11]. Also, the MIC in the test with Streptococcus pneumoniae [12] is 0.025 µg/mL (≈ 0.0321 µM); against Staphylococcus aureus [13], 0.39 µg/mL (≈ 0.501 µM); in the test with Streptococcus pneumoniae [14], 0.025 µg/mL (≈ 0.0321 µM).

The term MIC denotes the smallest concentration in the dilution series that meets the test's criterion for growth inhibition. A lower MIC goes with inhibition by little substance.

For the origin of these results see ChEMBL document CHEMBL1139006, “Synthesis and in vitro antibiotic activity of 16-membered 9-O-arylalkyloxime macrolides” (2006).
